Source: patent US11679107B2 (Eisai R&D Management Co., Ltd., priority 2018, dated 2023)
Read-outs that look alike come from different tables or passages of the source.

Legend:
SF3b complexes = target: T1, SF3b complexes (Homo sapiens, UniProt O75533+Q7RTV0); test: Scintillation proximity assay (SPA) with [3H]-labelled pladienolide probe; type: binding; conditions: SF3B1 (WT); geometric mean; read-out: SPA-ATS GMean IC50 (nM) SF3B1 (WT)
T1 construct: endogenous in cells; host or cells: Nuclear extracts; A HeLa S3 extract preparation is described for the in vitro splicing assay
In short: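 SF3b complexes captured from nuclear extracts on anti-SF3B1 antibody SPA beads; test compounds pre-incubated 30 min before 2.5 nM [3H]-pladienolide probe added, then 30 min incubation. Bound probe read by scintillation; values from non-linear regression of concentration–response curves.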

[1] = system: NCI-H1568 cells (high MCL1); test: Cell proliferation and viability, CellTiter-Glo, 72 hours; type: cell-based; conditions: for GI50: geometric mean
In short: (§1)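 Cells grown in RPMI-1640 with 10% FBS (Panc line with added insulin and FBS to 15%) were exposed to an 11-point half-log dilution series, typically 10 μM-100 pM, at 0.1% final DMSO. After incubation at 37° C, 5% CO2, ATP content was measured by luminescence and normalized to a time-zero plate and DMSO wells.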

[2] = system: Panc 05.04 cells (SF3b K700E mutant); test: as above; type: cell-based; conditions: for GI50: geometric mean
In short: as §1

[3] = system: Ad2 variant pre-mRNAs spliced in HeLa S3 nuclear extracts; test: In vitro splicing assay (IVS), RT-qPCR of spliced product; type: biochemical; conditions: for IC50: geometric mean; for Ratio Ad2.1/2.2: ratio of IVS IC50 Ad2.1 to Ad2.2
In short: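 Ad2 variant pre-mRNA (2 ng) with FTZΔi control RNA in HeLa S3 nuclear extract (8 μg) was pre-incubated with compound or DMSO for 15 min at 30 °C. Splicing ran 90 min at 30 °C after adding 0.5 mM ATP, creatine phosphate and MgCl2. Spliced product was quantified by TaqMan RT-qPCR, normalized to DMSO, and curve-fitted.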

[4] = 72 h, NCIH1568.1, -100% = cidal, 0% = static, 100% = uninhibited growth
[5] = NCI-H1568, read-out: CTGlo-ATS GMean GI50 (nM) 72 h NCIH1568.1, 72 h, NCIH1568.1
[6] = 72 h, PANC0504.1, -100% = cidal, 0% = static, 100% = uninhibited growth
[7] = Panc 05.04, read-out: CTGlo-ATS GMean GI50 (nM) 72 h PANC0504.1, 72 h, PANC0504.1
[8] = Ad2.1 pre-mRNA substrate, read-out: qPCR-IVS-ATS GMean IC50 (nM) Ad2.1
[9] = Ad2.2 pre-mRNA substrate, read-out: qPCR-IVS-ATS GMean IC50 (nM) Ad2.2
[10] = NCI-H1568, 72 h, read-out: CTGlo-ATS GMean GI50 (nM) 72 h NCIH1568.1, NCIH1568.1 cells, 72 h
[11] = NCIH1568.1 cells, 72 h, −100% cidal, 0% static, 100% maximal growth
[12] = PANC0504.1 cells, 72 h, −100% cidal, 0% static, 100% maximal growth
[13] = Panc 05.04, 72 h, read-out: CTGlo-ATS GMean GI50 (nM) 72 h PANC0504.1, PANC0504.1 cells, 72 h
[14] = NCI-H1568, read-out: CTGlo-ATS GMean GI50 (nM) 72 h NCIH1568.1, NCIH1568.1 cells, 72 h
[15] = Panc 05.04, read-out: CTGlo-ATS GMean GI50 (nM) 72 h PANC0504.1, PANC0504.1 cells, 72 h

Compound | IC50 (SF3b complexes) [nM] | CTGlo-ATS Mean MinResponse % 72 h NCIH1568.1 [1, 4] [%] | GI50 [1, 5] [nM] | CTGlo-ATS Mean MinResponse % 72 h PANC0504.1 [2, 6] [%] | GI50 [2, 7] [nM] | IC50 [3, 8] [nM] | IC50 [3, 9] [nM] | Ratio Ad2.1/2.2 [3] | GI50 [1, 10] [nM] | CTGlo-ATS Mean MinResponse % 72 h NCIH1568.1 [1, 11] [%] | CTGlo-ATS Mean MinResponse % 72 h PANC0504.1 [2, 12] [%] | GI50 [2, 13] [nM] | GI50 [1, 14] [nM] | GI50 [2, 15] [nM]
C/C(=C\c1cccc(S(=O)(=O)N2CC[C@@H](O)C2)c1)[C@H]1OC(=O)C[C@H](O)CC[C@H](C)[C@@H](OC(=O)N2CCN(C)CC2)/C=C/[C@@H]1C [Compound 199, [(2S,3S,4E,6R,7S,10R)-10-hydroxy-2-[(E)-1-[3-[(3R)-3-hydroxypyrrolidin-1-yl]sulfonylphenyl]prop-1-en-2-yl]-3,7-dimethyl-12-oxo-1-oxacyclododec-4-en-6-yl] 4-methylpiperazine-1-carboxylate] | 8.99 | −52.026 | 22.9 | −95.445 | 33.8 | 1820 | 47.2 | 38.638 |  |  |  |  |  | 
C/C(=C\c1cc(F)cc(N2CCN(C(=O)C3CCCCC3)CC2)c1)[C@H]1OC(=O)C[C@H](O)CC[C@H](C)[C@@H](OC(=O)N2CCN(C)CC2)/C=C/[C@@H]1C [Compound 114] | 18.2 |  |  |  |  | 103 | 39.1 |  | 9.35 | −87.102 | −82.856 | 12.3 |  | 
C/C(=C\c1cc(F)cc(N2CCOCC2)c1)[C@H]1OC(=O)C[C@H](O)CC[C@H](C)[C@@H](OC(=O)N2CCCC(N(C)C)C2)/C=C/[C@@H]1C (some centres unmarked) [Compound 40] | 3.98 |  |  |  |  | 55.9 | 28.1 |  |  | −72.259 | −82.881 |  | 13.3 | 7.75
C/C(=C\c1ccc2cnn(C)c2c1)[C@H]1OC(=O)C[C@H](O)CC[C@H](C)[C@@H](OC(=O)N2CCN(C)CC2)/C=C/[C@@H]1C [Compound 55] | 2.37 |  |  |  |  | 19900 | 45.3 |  |  | −57.557 | −85.478 |  | 21.2 | 17.2
C/C(=C\c1cc(F)c2c(c1)nnn2CC1CC1)[C@H]1OC(=O)C[C@H](O)CC[C@H](C)[C@@H](OC(=O)N2CCN(C)CC2)/C=C/[C@@H]1C [Compound 139] | 4.32 |  |  |  |  | > 25000 | 93.2 |  |  | −61.022 | −21.195 |  | 142 | 240
C/C(=C\c1cccc(COC(=O)N2CC[C@@H](F)C2)c1)[C@H]1OC(=O)C[C@H](O)CC[C@H](C)[C@@H](OC(=O)N2CCN(C)CC2)/C=C/[C@@H]1C [Compound 260] | 0.196 | −44.621 | 42.3 | −47.734 | 39.5 | > 25000 | 99.4 | 251.398 |  |  |  |  |  | 
C/C(=C\c1cccc(S(=O)(=O)N2CCC(F)(F)CC2)c1)[C@H]1OC(=O)C[C@H](O)CC[C@H](C)[C@@H](OC(=O)N2CCN(C)CC2)/C=C/[C@@H]1C [Compound 202, [(2S,3S,4E,6R,7S,10R)-2-[(E)-1-[3-(4,4-difluoropiperidin-1-yl)sulfonylphenyl]prop-1-en-2-yl]-10-hydroxy-3,7-dimethyl-12-oxo-1-oxacyclododec-4-en-6-yl] 4-methylpiperazine-1-carboxylate] | 14.1 | −59.083 | 29.4 | −93.824 | 24.7 | 4470 | 25.2 | 177.387 |  |  |  |  |  | 
C/C(=C\c1cc(F)cc(N2CC[C@@H](F)C2)c1)[C@H]1OC(=O)C[C@H](O)CC[C@H](C)[C@@H](OC(=O)N2CCN(C)CC2)/C=C/[C@@H]1C [Compound 14] | 2.72 |  |  |  |  | 584 | 54.7 |  | 14.1 | −65.049 | −91.489 | 19.6 |  | 
C=CS(=O)(=O)N1CCN(c2cc(F)cc(/C=C(\C)[C@H]3OC(=O)C[C@H](O)CC[C@H](C)[C@@H](OC(=O)N4CCN(C)CC4)/C=C/[C@@H]3C)c2)CC1 [Compound 74] | 4.88 |  |  |  |  | 34.5 | 20.8 |  |  | −99.528 | −64.747 |  | 4.69 | 13.1
C/C(=C\c1cc(F)cc(N2CCOCC2)c1)[C@H]1OC(=O)C[C@H](O)CC[C@@](C)(O)[C@@H](OC(=O)N2CCC(N3CCCCC3)CC2)/C=C/[C@@H]1C [Compound 62] | 7.86 |  |  |  |  | 587 | 52.9 |  |  | −57.446 | −94.536 |  | 54.9 | 40.5
C/C(=C\c1cc(F)cc(N2CCN(CC3CC3)C2=O)c1)[C@H]1OC(=O)C[C@H](O)CC[C@H](C)[C@@H](OC(=O)N2CCN(C)CC2)/C=C/[C@@H]1C [Compound 68] | 3.39 |  |  |  |  | 1870 | 35.7 |  |  | −67.270 | −93.925 |  | 12.4 | 11.7
C/C(=C\c1cc(F)c2nnn(CC3CC3)c2c1)[C@H]1OC(=O)C[C@H](O)CC[C@H](C)[C@@H](OC(=O)N2CCN(C)CC2)/C=C/[C@@H]1C [Compound 137] | 1.21 |  |  |  |  | 27.6 | 12.1 |  |  | −81.149 | −86.584 |  | 1.17 | 1.61
C/C(=C\c1ccc2nccn2c1)[C@H]1OC(=O)C[C@H](O)CC[C@H](C)[C@@H](OC(=O)N2CCN(C)CC2)/C=C/[C@@H]1C [Compound 88, [(2S,3S,4E,6R,7S,10R)-10-hydroxy-2-[(E)-1-imidazo[1,2-a]pyridin-6-ylprop-1-en-2-yl]-3,7-dimethyl-12-oxo-l-oxacyclododec-4-en-6-yl] 4-methylpiperazine-1-carboxylate] | 1.02 |  |  |  |  | > 25000 | 154 |  | 157 | −20.194 | −5.029 | 86.3 |  | 
C/C(=C\c1cc(F)cc(N2CC3CCC(C2)O3)c1)[C@H]1OC(=O)C[C@H](O)CC[C@H](C)[C@@H](OC(=O)N2CCN(C)CC2)/C=C/[C@@H]1C [Compound 32] | 3.24 |  |  |  |  | 19.5 | 16.2 |  |  | −74.701 | −69.289 |  | 10 | 6.53
C/C(=C\c1cc(F)cc(N2CCOCC2)c1)[C@H]1OC(=O)C[C@H](O)CC[C@H](C)[C@@H](OC(=O)N(C)C2CN3CCC2CC3)/C=C/[C@@H]1C (some centres unmarked) [Compound 98] | 3.45 |  |  |  |  | 159 | 35.9 |  | 11.5 | −75.954 | −87.759 | 10.3 |  | 
C/C(=C\c1cc(F)cc(N2CCOCC2)c1)[C@H]1OC(=O)C[C@H](O)CC[C@H](C)[C@@H](OC(=O)N2CCC(N(C)C)C2)/C=C/[C@@H]1C (stereo in doubt) [Compound 243, [(2S,3S,4E,6R,7S,10R)-2-[(E)-1-(3-fluoro-5-morpholin-4-ylphenyl)prop-1-en-2-yl]-10-hydroxy-3,7-dimethyl-12-oxo-1-oxacyclododec-4-en-6-yl] (3S)-3-(dimethylamino)pyrrolidine-1-carboxylate] | 3.59 | −71.678 | 10.6 | −92.290 | 10.4 | 98.4 | 38.5 | 2.553 |  |  |  |  |  | 
